Measured values taken from PubChem BioAssay (NCI).
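A five-concentration, 48-hour dose response in 96-well plates underlies each endpoint, interpolated linearly between surrounding concentrations. At the TGI there is no net growth.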

Experiments:
Experiment in all cases: NCI anticancer screen, dose series, 48 h
SNB-75 CNS = tested on: SNB-75 CNS
SNB-19 CNS = tested on: SNB-19 CNS
SK-MEL-2 melanoma = tested on: SK-MEL-2 melanoma
RPMI-8226 leukemia = tested on: RPMI-8226 leukemia
CCRF-CEM leukemia = tested on: CCRF-CEM leukemia
KM12 colon = tested on: KM12 colon
MDA-MB-435 = tested on: MDA-MB-435
SK-MEL-28 melanoma = tested on: SK-MEL-28 melanoma
A498 renal = tested on: A498 renal
SK-MEL-5 melanoma = tested on: SK-MEL-5 melanoma
SK-OV-3 ovarian = tested on: SK-OV-3 ovarian

| SMILES | TGI (SNB-75 CNS) | TGI (SNB-19 CNS) | TGI (SK-MEL-2 melanoma) | TGI (RPMI-8226 leukemia) | TGI (CCRF-CEM leukemia) | TGI (KM12 colon) | TGI (MDA-MB-435) | TGI (SK-MEL-28 melanoma) | TGI (A498 renal) | TGI (SK-MEL-5 melanoma) | TGI (SK-OV-3 ovarian) |
| --- | --- | --- | --- | --- | --- | --- | --- | --- | --- | --- | --- |
| CC1(C)OC(=O)N(c2ccccc2)C12C=Cc1cc([N+](=O)[O-])cc([N+](=O)[O-])c1O2 (stereo unspecified) | > 100 µM | > 100 µM | > 100 µM | > 100 µM | > 100 µM | > 100 µM | > 100 µM | > 100 µM | > 100 µM | > 100 µM | > 100 µM |
| C=CC1(C)CCC2C(=CCC3C2(C)CC(O)C(O)C3(C)COC2OC(C(=O)O)C(O)C(O)C2O)C1 (stereo unspecified) (tested in a mixture with another compound) | > 100 µM | > 100 µM | > 100 µM | > 100 µM | > 100 µM | > 100 µM | > 100 µM | > 100 µM | > 100 µM | > 100 µM | > 100 µM |
| C=C1C(=O)O[C@@H]2C(=O)[C@@H](C)CCC/C(C)=C/CC[C@@]3(C)O[C@@H]3C[C@@H]12 | 56.8 µM | > 100 µM | > 100 µM | 54.1 µM | 30.2 µM | > 100 µM | > 100 µM | > 100 µM | > 100 µM | 56.7 µM | > 100 µM |
| CC(C)=CCc1c2c(c3occ(-c4ccc(O)cc4)c(=O)c3c1O)CC(C(C)(C)O)O2 (stereo unspecified) | 31.9 µM | 31.3 µM | 28.1 µM | 29.9 µM | > 100 µM | 35.5 µM | 30.5 µM | 58.5 µM | 29.6 µM | 30.1 µM | 33 µM |
| O=c1[nH]c(Nc2cccc(CC(F)(F)F)c2)nc2nc[nH]c12 | > 100 µM | > 100 µM | > 100 µM | > 100 µM | > 100 µM | > 100 µM | > 100 µM | > 100 µM | > 100 µM | > 100 µM | > 100 µM |
| c1csc(-c2ccc(-c3cccc4nsnc34)s2)c1 | > 100 µM | > 100 µM | > 100 µM | > 100 µM | 69.3 µM | > 100 µM | > 100 µM | > 100 µM | > 100 µM | > 100 µM | > 100 µM |
| ClCCN1CCC2(CC1)SSC1(CCN(CCCl)CC1)S2 | > 100 µM | > 100 µM | > 100 µM | 57.1 µM | 55.6 µM | > 100 µM | > 100 µM | > 100 µM | > 100 µM | > 100 µM | 98.7 µM |
| N#Cc1c(-c2ccccc2)/c(=C\Nc2cccc(C(F)(F)F)c2)c(=O)n2c1nc1ccccc12 | > 100 µM | > 100 µM | > 100 µM | 39.9 µM | > 100 µM | 53.4 µM | > 100 µM | > 100 µM | > 100 µM | > 100 µM | 91.6 µM |
| C#CCNC(CS)C(=O)O (stereo unspecified) | > 100 µM | > 100 µM | > 100 µM | > 100 µM | > 100 µM | > 100 µM | > 100 µM | > 100 µM | > 100 µM | > 100 µM | > 100 µM |
| O=C1/C(=C\c2ccccc2)C(NC2CCCCC2)c2ccccc21 (stereo unspecified) | 4.45 µM | 22.5 µM | 5.25 µM | 2.42 µM | 0.294 µM | 15.9 µM | 3.18 µM | 6.06 µM | 32.7 µM | 6.65 µM | 27 µM |
| CC[C@@H]1CC[C@@H]2[C@H](CC[C@]3(C)[C@@H](OC(C)=O)CC[C@@H]23)[C@H]1COC(C)=O | > 100 µM | > 100 µM | 34.5 µM | 48.7 µM | 41.2 µM | 60 µM | 50.2 µM | > 100 µM | 94.4 µM | 32.7 µM | > 100 µM |
| CCOC(=O)c1csc(NC(=O)CN2CCOCC2)n1 | > 100 µM | > 100 µM | > 100 µM | > 100 µM | > 100 µM | > 100 µM | > 100 µM | > 100 µM | > 100 µM | > 100 µM | > 100 µM |
| Cc1ccc([N+](=O)[O-])cc1NC1=NCCO1 | > 100 µM | > 100 µM | > 100 µM | > 100 µM | > 100 µM | > 100 µM | > 100 µM | > 100 µM | > 100 µM | > 100 µM | > 100 µM |
| CC1(C)N=[N+]([O-])C1(C)C | > 100 µM | > 100 µM | > 100 µM | > 100 µM | > 100 µM | > 100 µM | > 100 µM | > 100 µM | > 100 µM | > 100 µM | > 100 µM |
| CN(C)C(=O)O/N=C1/C(c2c(O)[nH]c3ccccc23)=Nc2ccccc21 | 8.69 µM | 39.1 µM | 33.4 µM | > 100 µM | > 100 µM | > 100 µM | > 100 µM | > 100 µM | 18.1 µM | > 100 µM | 48.8 µM |
| Cc1nc2n(c1/C=C1/C(=O)Nc3cccc(Cl)c31)CCS2 | 37.5 µM | 62.5 µM | 51.8 µM | > 100 µM | > 100 µM | > 100 µM | > 100 µM | > 100 µM | > 100 µM | > 100 µM | 35.1 µM |
